pKd: −log10 of the molar value. Read-outs that look alike come from different tables or passages of the source.
Legend:
p53-Y220C DBD [1] = molecular target: T1, p53-Y220C DBD (Homo sapiens, UniProt P04637, M133L/N239Y/N268D/V203A/Y220C); test: Isothermal titration calorimetry (ITC); format: binding; conditions: for pKd: 50 μM protein, 25 mM KPi pH 7.2, 150 mM NaCl, 1 mM TCEP, 5% DMSO; for increase in affinity (ITC KD) compared to the nonfluorinated parent compounds (1 and 5): 4 vs 1, 6 vs 5; for improvement of free energy of binding compared with parent compounds: at 293 K, vs PhiKan083 (1) and 5
T1 construct: Stabilized p53-Y220C DBD (residues 94–312) was expressed and purified as previously described; made in house
Description: We tested PhiKan083 (1) and analogues 2–6 for their stabilization of the p53-Y220C DNA-binding domain (DBD) using differential scanning fluorimetry (DSF; Table 1). The N-2,2,2-trifluoroethyl substituted carbazoles 4 and 6 increased stability of the p53-Y220C DBD by 1.2 K at a compound concentration of 125 μM, showing a clear improvement over their N-ethyl substituted counterparts PhiKan083 (1) and 5 (ΔTm = 0.8 K and ΔTm = 0.6 K, respectively).
ITC experiments were conducted as described.[26] Samples for the cell unit contained 50 μM protein in a 25 mM KPi (pH 7.2), 150 mM NaCl, 1 mM TCEP, and 5% (v/v) DMSO assay buffer. The syringe contained 2–5 mM compound in the same assay buffer.

[2] = molecular target: T2, p53-Y220C DNA-binding domain (DBD) (Homo sapiens, UniProt P04637, M133L/N239Y/N268D/V203A/Y220C); test: Differential scanning fluorimetry (DSF), stabilization of p53-Y220C DBD; conditions: 8 μM stabilized p53-Y220C DBD, 25 mM KPi pH 7.2, 5% DMSO, triplicate; for ΔTm at 125 µM: pH 7.2, compound 125 μM; for DSF ΔTm at 125 μM: compound 125 μM
T2 construct: Stabilized p53-Y220C DBD (residues 94–312) was expressed and purified as previously described; made in house
Description: We tested […]083 (1) and analogues 2-6 for their stabilization of the p53-Y220C DNA-binding domain (DBD) using differential scanning fluorimetry (DSF; Table 1). The N-2,2,2-trifluoroethyl substituted carbazoles 4 and 6 increased stability of the p53-Y220C DBD by 1.2 K at a compound concentration of 125 μM, showing a clear improvement over their N-ethyl substituted counterparts […]083 (1) and 5 (ΔTm = 0.8 K and ΔTm = 0.6 K, respectively). […] DSF was performed as described.[26] Briefly, melting temperatures (Tm) were determined using 8 μM protein (stabilized p53-Y220C DBD) and 10 × SYPRO orange (Life Technologies) in a 25 mM KPi (pH 7.2), 150 mM NaCl, and 1 mM TCEP assay buffer at a final DMSO concentration of 5% (v/v). ΔTm values were calculated as ΔTm= Tm (protein + compound) - Tm (protein)). All samples were measured in triplicate.

p53-Y220C DBD [3] = molecular target: T1, p53-Y220C DBD; design: method as in Boeckler et al. (24); conditions: data taken from the literature; ref Boeckler et al. (24); read-out: ITC KD; cited from earlier work

Row | SMILES | ligand efficiency (LE) (p53-Y220C DBD [1]) [kcal mol^–1 atom^–1] | pKd (p53-Y220C DBD [1]) | increase in affinity (ITC KD) compared to the nonfluorinated parent compounds (1 and 5) (p53-Y220C DBD [1]) [fold] | improvement of free energy of binding compared with parent compounds (p53-Y220C DBD [1]) | ΔTm at 125 µM [2] [°C] | DSF ΔTm at 125 μM [2] [K] | pKd (p53-Y220C DBD [3]) | drop in affinity due to additional methyl group at the amine (p53-Y220C DBD [1]; 5 vs 1) [%]
1 | CNCc1ccc2c(c1)c1ccccc1n2CC(F)(F)F [Compound 4, 1-(9-(2,2,2-Trifluoroethyl)-9H-carbazol-3-yl)-N-methylmethanamine] | 0.3 | 4.55 | 5 | approximately −0.9 kcal/mol | 1.2 |  |  | 
2 | CNCc1ccc2c(c1)c1ccccc1n2CC(F)F [Compound 3, 1-(9-(2,2-Difluoroethyl)-9H-carbazol-3-yl)-N-methylmethanamine] |  | 4.00 |  |  | 0.4 | 0.3 |  | 
3 | CN(C)Cc1ccc2c(c1)c1ccccc1n2CC(F)(F)F [Compound 6, 1-(9-(2,2,2-Trifluoroethyl)-9H-carbazol-3-yl)-N,N-dimethylmethanamine] | 0.3 | 4.43 | 5 | approximately −0.9 kcal/mol | 1.2 |  |  | 
4 | CNCc1ccc2c(c1)c1ccccc1n2CCF [Compound 2, 1-(9-(2-Fluoroethyl)-9H-carbazol-3-yl)-N-methylmethanamine] |  | 3.86 |  |  | 0.3 | 0.4 |  | 
5 | CCn1c2ccccc2c2cc(CNC)ccc21 [Compound 1, 1-(9-ethyl-9H-carbazole-3-yl)-N-methylmethanamine] |  |  |  |  |  |  | 3.91 | 
6 | CCn1c2ccccc2c2cc(CN(C)C)ccc21 [Compound 5, 1-(9-Ethyl-9H-carbazol-3-yl)-N,N-dimethylmethanamine] |  | 3.77 |  |  | 0.6 |  |  | 30
